IC50 data for 13 compounds are collected here from patent US20260022142A1, “MACROCYCLIC IMMUNOMODULATORS” (Bristol-Myers Squibb Company, priority 2022, published 2026).

SMILES strings stand for the structures. Numbered stars: 1 amine (or outer) side, 2 acyl side, 3 side chain; on linkers, the order of the positions; unused ones are H or OH. Bridge positions count the residues as written; N and C are the ends. Square brackets hold non-standard residues; d marks the D form. Peptide text beside a SMILES is read from it. * marks the point of attachment. ξ: configuration not given here. Bip = N[C@@H](Cc1ccc(-c2ccccc2)cc1)C(=O)O; Phe(3-Me) = Cc1cccc(C[C@H](N)C(=O)O)c1; γGlu = O=C(O)[C@H](CCC(=O)[*:2])N[*:1]; Val(3-OH) = CC(C)(O)[C@H](N)C(=O)O; Cha = N[C@@H](CC1CCCCC1)C(=O)O; Thr(3ξ) = CC(O)[C@H](N)C(=O)O; 12Ado = NCCCCCCCCCCCC(=O)O; Carboxymethyl = O=C(O)C*; Orn = NCCC[C@H](N)C(=O)O; Aun = NCCCCCCCCCCC(=O)O; Dab = NCC[C@H](N)C(=O)O; Dap = NC[C@H](N)C(=O)O; AEEA = NCCOCCOCC(=O)O

The target in the test is T1, PD-1/PD-L1 interaction (PE-labeled human PD-L1-Ig binding to Jurkat cell line over-expressing human PD-1) (Homo sapiens, UniProt Q15116).
T1 construct: expressed in transfected cells; host or cells: Jurkat
T1 sequence (Q15116 25-288): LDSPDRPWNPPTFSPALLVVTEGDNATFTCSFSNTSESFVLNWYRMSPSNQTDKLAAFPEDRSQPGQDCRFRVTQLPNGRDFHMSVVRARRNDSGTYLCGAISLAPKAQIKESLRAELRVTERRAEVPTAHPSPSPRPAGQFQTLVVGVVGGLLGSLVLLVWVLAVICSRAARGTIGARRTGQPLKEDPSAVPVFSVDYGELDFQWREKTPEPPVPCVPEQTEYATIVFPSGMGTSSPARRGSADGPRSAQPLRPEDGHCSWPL
Kind of test: Jurkat-PD-1 Cell Binding High-Content Screening Assay (CBA). In kind it is cell-based. As to conditions: Jurkat cell line over-expressing human PD-1; PE-labeled PD-L1-Ig 20 nM final; read-out: Jurkat hPD1-PDL1 IC50. Summed up: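 Jurkat-hPD-1 cells, DMEM/10% FCS; cpd 2 h 37° C; PE-PD-L1-Ig 20 nM final, 1 h; 4% PFA fix + Hoechst 33342, 3× dPBS wash; high-content imaging read-out.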
In the case of `CC(=O)NCCCC[C@@H]1NC(=O)[C@H](Cc2ccc(-c3ccccc3)cc2)NC(=O)[C@H](Cc2ccc(OCC(=O)O)cc2)NC(=O)[C@H](Cc2cccc(C)c2)NC(=O)[C@H](CC(=O)O)NC(=O)[C@H](Cc2ccc(OCC(=O)O)cc2)NC(=O)[C@H](CCN)NC(=O)CSC[C@@H](C(=O)N[C@@H](CCN)C(=O)N[C@@H](CO)C(=O)NCCCCCCCCCCC(=O)O)NC(=O)[C@H](CO)NC(=O)[C@H](C(C)(C)O)NC(=O)[C@H](CC2CCCCC2)NC(=O)[C@H](CCN)NC(=O)[C@@H](CC(C)C)NC(=O)[C@H](CCCN)NC1=O` [Compound 3644] ({CH2CO}-[Dab]Y(Carboxymethyl)D[Phe(3-Me)]Y(Carboxymethyl)[Bip]K(Ac)[Orn][dL][Dab][Cha][Val(3-OH)]SC[Dab]S[Aun]-OH; thioether N-14), the IC50 is 18.8 nM. To `CC(=O)NCCCC[C@@H]1NC(=O)[C@H](Cc2ccc(-c3ccccc3)cc2)NC(=O)[C@H](CCNC(C)=O)NC(=O)[C@H](Cc2cccc(C)c2)NC(=O)[C@H](CC(=O)O)NC(=O)[C@H](Cc2ccc(OCC(=O)O)cc2)NC(=O)[C@H](Cc2ccc(OCC(=O)O)cc2)NC(=O)CSC[C@@H](C(=O)N[C@@H](CCN)C(=O)N[C@@H](CO)C(=O)NCCCCCCCCCCCC(=O)O)NC(=O)[C@H](Cc2cnc[nH]2)NC(=O)[C@H](C(C)O)NC(=O)[C@H](CC2CCCCC2)NC(=O)[C@H](CCN)NC(=O)[C@@H](CC(C)C)NC(=O)[C@H](CCCN)NC1=O` (stereo partly drawn) [Compound 3646] ({CH2CO}-Y(Carboxymethyl)Y(Carboxymethyl)D[Phe(3-Me)][Dab](Ac)[Bip]K(Ac)[Orn][dL][Dab][Cha][Thr(3ξ)]HC[Dab]S[12Ado]-OH; thioether N-14) belongs 94.7 nM; to `CC(C)C[C@H]1NC(=O)[C@H](CCCN)NC(=O)[C@H](C(C)C)NC(=O)[C@H](Cc2ccc(-c3ccccc3)cc2)NC(=O)[C@H](C(C)C)NC(=O)[C@H](Cc2c[nH]c3ccccc23)NC(=O)[C@H](CC(=O)O)NC(=O)[C@H](Cc2ccc(OCC(=O)O)cc2)NC(=O)[C@H](CN)NC(=O)CSC[C@@H](C(=O)N[C@@H](CCN)C(=O)NCCCCCCCCCCC(=O)O)NC(=O)[C@H](CN)NC(=O)[C@H](C(C)O)NC(=O)[C@H](CC2CCCCC2)NC(=O)[C@H](CCN)NC1=O` (stereo partly drawn) [Compound 3647] ({CH2CO}-[Dap]Y(Carboxymethyl)DWV[Bip]V[Orn][dL][Dab][Cha][Thr(3ξ)][Dap]C[Dab][Aun]-OH; thioether N-14), 27.7 nM; to `CC(C)C[C@H]1NC(=O)[C@H](CCCN)NC(=O)[C@H](C(C)C)NC(=O)[C@H](Cc2ccc(-c3ccccc3)cc2)NC(=O)[C@H](C(C)C)NC(=O)[C@H](Cc2c[nH]c3ccccc23)NC(=O)[C@H](CC(=O)O)NC(=O)[C@H](Cc2ccc(OCC(=O)O)cc2)NC(=O)[C@H](CN)NC(=O)CSC[C@@H](C(=O)N[C@@H](CCN)C(=O)NCCCCCCCCCCC(=O)O)NC(=O)[C@H](CCCCN)NC(=O)[C@H](C(C)O)NC(=O)[C@H](CC2CCCCC2)NC(=O)[C@H](CCN)NC1=O` (stereo partly drawn) [Compound 3648] ({CH2CO}-[Dap]Y(Carboxymethyl)DWV[Bip]V[Orn][dL][Dab][Cha][Thr(3ξ)]KC[Dab][Aun]-OH; thioether N-14), 21.5 nM. For `CC(C)C[C@H]1NC(=O)[C@H](CCCN)NC(=O)[C@H](C(C)C)NC(=O)[C@H](Cc2ccc(-c3ccccc3)cc2)NC(=O)[C@H](C(C)C)NC(=O)[C@H](Cc2c[nH]c3ccccc23)NC(=O)[C@H](CC(=O)O)NC(=O)[C@H](Cc2ccc(OCC(=O)O)cc2)NC(=O)[C@H](CN)NC(=O)CSC[C@@H](C(=O)N[C@@H](CCN)C(=O)NCCOCCOCC(=O)N[C@@H](CCC(=O)NCCCCCCCCCCC(=O)O)C(=O)O)NC(=O)[C@H](CN)NC(=O)[C@H](C(C)O)NC(=O)[C@H](CC2CCCCC2)NC(=O)[C@H](CCN)NC1=O` (stereo partly drawn) [Compound 3649] ({CH2CO}-[Dap]Y(Carboxymethyl)DWV[Bip]V[Orn][dL][Dab][Cha][Thr(3ξ)][Dap]C[Dab][AEEA][γGlu][Aun]-OH; thioether N-14) the value was 7.5 nM; for `CC(C)C[C@H]1NC(=O)[C@H](CCCN)NC(=O)[C@H](C(C)C)NC(=O)[C@H](Cc2ccc(-c3ccccc3)cc2)NC(=O)[C@H](C(C)C)NC(=O)[C@H](Cc2c[nH]c3ccccc23)NC(=O)[C@H](CC(=O)O)NC(=O)[C@H](Cc2ccc(OCC(=O)O)cc2)NC(=O)[C@H](CN)NC(=O)CSC[C@@H](C(=O)N[C@@H](CCN)C(=O)NCCOCCOCC(=O)N[C@@H](CCC(=O)NCCCCCCCCCCC(=O)O)C(=O)O)NC(=O)[C@H](CCCCN)NC(=O)[C@H](C(C)O)NC(=O)[C@H](CC2CCCCC2)NC(=O)[C@H](CCN)NC1=O` (stereo partly drawn) [Compound 3650] ({CH2CO}-[Dap]Y(Carboxymethyl)DWV[Bip]V[Orn][dL][Dab][Cha][Thr(3ξ)]KC[Dab][AEEA][γGlu][Aun]-OH; thioether N-14), 17.5 nM; for `CC(C)C[C@H]1NC(=O)[C@H](CCCN)NC(=O)[C@H](C(C)C)NC(=O)[C@H](Cc2ccc(-c3ccccc3)cc2)NC(=O)[C@H](C(C)C)NC(=O)[C@H](Cc2c[nH]c3ccccc23)NC(=O)[C@H](CC(=O)O)NC(=O)[C@H](Cc2ccc(OCC(=O)O)cc2)NC(=O)[C@H](CN)NC(=O)CSC[C@@H](C(=O)N[C@@H](CCN)C(=O)NCCCCCCCCCCC(=O)O)NC(=O)[C@H](CO)NC(=O)[C@H](C(C)O)NC(=O)[C@H](CC2CCCCC2)NC(=O)[C@H](CCN)NC1=O` (stereo partly drawn) [Compound 3651] ({CH2CO}-[Dap]Y(Carboxymethyl)DWV[Bip]V[Orn][dL][Dab][Cha][Thr(3ξ)]SC[Dab][Aun]-OH; thioether N-14), 24.1 nM. For `CC(C)C[C@H]1NC(=O)[C@H](CCCN)NC(=O)[C@H](C(C)C)NC(=O)[C@H](Cc2ccc(-c3ccccc3)cc2)NC(=O)[C@H](C(C)C)NC(=O)[C@H](Cc2c[nH]c3ccccc23)NC(=O)[C@H](CC(=O)O)NC(=O)[C@H](Cc2ccc(OCC(=O)O)cc2)NC(=O)[C@H](CN)NC(=O)CSC[C@@H](C(=O)N[C@@H](CCN)C(=O)NCCCCCCCCCCC(=O)O)NC(=O)[C@H](Cc2cnc[nH]2)NC(=O)[C@H](C(C)O)NC(=O)[C@H](CC2CCCCC2)NC(=O)[C@H](CCN)NC1=O` (stereo partly drawn) [Compound 3652] ({CH2CO}-[Dap]Y(Carboxymethyl)DWV[Bip]V[Orn][dL][Dab][Cha][Thr(3ξ)]HC[Dab][Aun]-OH; thioether N-14) the value was 22.1 nM; for `CC(C)C[C@H]1NC(=O)[C@H](CCCN)NC(=O)[C@H](Cc2ccc(O)cc2)NC(=O)[C@H](Cc2ccc(-c3ccccc3)cc2)NC(=O)[C@H](C(C)C)NC(=O)[C@H](Cc2c[nH]c3ccccc23)NC(=O)[C@H](CC(=O)O)NC(=O)[C@H](Cc2ccc(OCC(=O)O)cc2)NC(=O)[C@H](CN)NC(=O)CSC[C@@H](C(=O)N[C@@H](CCN)C(=O)NCCCCCCCCCCC(=O)O)NC(=O)[C@H](CN)NC(=O)[C@H](C(C)O)NC(=O)[C@H](CC2CCCCC2)NC(=O)[C@H](CCN)NC1=O` (stereo partly drawn) [Compound 3654] ({CH2CO}-[Dap]Y(Carboxymethyl)DWV[Bip]Y[Orn][dL][Dab][Cha][Thr(3ξ)][Dap]C[Dab][Aun]-OH; thioether N-14), 45.1 nM; for `CC(C)C[C@H]1NC(=O)[C@H](CCCN)NC(=O)[C@H](Cc2ccc(O)cc2)NC(=O)[C@H](Cc2ccc(-c3ccccc3)cc2)NC(=O)[C@H](C(C)C)NC(=O)[C@H](Cc2c[nH]c3ccccc23)NC(=O)[C@H](CC(=O)O)NC(=O)[C@H](Cc2ccc(OCC(=O)O)cc2)NC(=O)[C@H](CN)NC(=O)CSC[C@@H](C(=O)N[C@@H](CCN)C(=O)NCCCCCCCCCCC(=O)O)NC(=O)[C@H](CCCCN)NC(=O)[C@H](C(C)O)NC(=O)[C@H](CC2CCCCC2)NC(=O)[C@H](CCN)NC1=O` (stereo partly drawn) [Compound 3655] ({CH2CO}-[Dap]Y(Carboxymethyl)DWV[Bip]Y[Orn][dL][Dab][Cha][Thr(3ξ)]KC[Dab][Aun]-OH; thioether N-14), 61.8 nM. For `CC(C)C[C@H]1NC(=O)[C@H](CCCN)NC(=O)[C@H](Cc2ccc(O)cc2)NC(=O)[C@H](Cc2ccc(-c3ccccc3)cc2)NC(=O)[C@H](Cc2ccc(O)cc2)NC(=O)[C@H](Cc2c[nH]c3ccccc23)NC(=O)[C@H](CC(=O)O)NC(=O)[C@H](Cc2ccc(OCC(=O)O)cc2)NC(=O)[C@H](CN)NC(=O)CSC[C@@H](C(=O)N[C@@H](CCN)C(=O)NCCCCCCCCCCC(=O)O)NC(=O)[C@H](CN)NC(=O)[C@H](C(C)O)NC(=O)[C@H](CC2CCCCC2)NC(=O)[C@H](CCN)NC1=O` (stereo partly drawn) [Compound 3656] ({CH2CO}-[Dap]Y(Carboxymethyl)DWY[Bip]Y[Orn][dL][Dab][Cha][Thr(3ξ)][Dap]C[Dab][Aun]-OH; thioether N-14), the 50% inhibitory concentration (IC50) was determined as 178 nM. For `CC(C)C[C@H]1NC(=O)[C@H](CCCN)NC(=O)[C@H](Cc2ccc(O)cc2)NC(=O)[C@H](Cc2ccc(-c3ccccc3)cc2)NC(=O)[C@H](Cc2ccc(O)cc2)NC(=O)[C@H](Cc2c[nH]c3ccccc23)NC(=O)[C@H](CC(=O)O)NC(=O)[C@H](Cc2ccc(OCC(=O)O)cc2)NC(=O)[C@H](CN)NC(=O)CSC[C@@H](C(=O)N[C@@H](CCN)C(=O)NCCCCCCCCCCC(=O)O)NC(=O)[C@H](CCCCN)NC(=O)[C@H](C(C)O)NC(=O)[C@H](CC2CCCCC2)NC(=O)[C@H](CCN)NC1=O` (stereo partly drawn) [Compound 3657] ({CH2CO}-[Dap]Y(Carboxymethyl)DWY[Bip]Y[Orn][dL][Dab][Cha][Thr(3ξ)]KC[Dab][Aun]-OH; thioether N-14), the IC50 turned out to be 121 nM. To `CC(C)C[C@@H]1NC(=O)[C@H](Cc2c[nH]c3ccccc23)NC(=O)[C@H](CC(=O)O)NC(=O)[C@H](Cc2ccc(OCC(=O)O)cc2)NC(=O)[C@H](CN)NC(=O)CSC[C@@H](C(=O)N[C@@H](CCN)C(=O)NCCCCCCCCCCC(=O)O)NC(=O)[C@H](CN)NC(=O)[C@H](C(C)O)NC(=O)[C@H](CC2CCCCC2)NC(=O)[C@H](CCN)NC(=O)[C@@H](CC(C)C)NC(=O)[C@H](CCCN)NC(=O)[C@H](Cc2ccc(O)cc2)NC(=O)[C@H](Cc2ccc(-c3ccccc3)cc2)NC1=O` (stereo partly drawn) [Compound 3658] ({CH2CO}-[Dap]Y(Carboxymethyl)DWL[Bip]Y[Orn][dL][Dab][Cha][Thr(3ξ)][Dap]C[Dab][Aun]-OH; thioether N-14) belongs 88 nM.

The term IC50 denotes the concentration needed to halve the response being measured.
